Measurements from PubChem BioAssay (NCI).
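Each compound was tested at five concentrations against cells in 96-well plates for 48 hours. GI50 is the concentration that inhibits growth by half. Definition used: TGI = concentration required for complete inhibition of growth.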

What was measured:
Assay in all cases: inhibition of tumour cell growth, NCI panel, 48 h
HS 578T breast = system: HS 578T breast
MALME-3M melanoma = system: MALME-3M melanoma
NCI-H23 lung = system: NCI-H23 lung
NCI/ADR-RES ovarian = system: NCI/ADR-RES ovarian
M14 melanoma = system: M14 melanoma
RXF 393 renal = system: RXF 393 renal
HOP-62 NSCLC = system: HOP-62 NSCLC
SF-295 CNS = system: SF-295 CNS
NCI-H522 lung = system: NCI-H522 lung
SNB-75 CNS = system: SNB-75 CNS
MDA-MB-435 = system: MDA-MB-435
UO-31 renal = system: UO-31 renal
K-562 leukemia = system: K-562 leukemia
A498 renal = system: A498 renal
U251 CNS = system: U251 CNS
SK-MEL-2 melanoma = system: SK-MEL-2 melanoma
HCT-116 colon = system: HCT-116 colon
HOP-92 NSCLC = system: HOP-92 NSCLC
IGROV1 ovarian = system: IGROV1 ovarian
T-47D breast = system: T-47D breast
SF-539 CNS = system: SF-539 CNS
SR leukemia = system: SR leukemia
SW-620 colon = system: SW-620 colon
HL-60(TB) leukemia = system: HL-60(TB) leukemia
HT29 colon = system: HT29 colon
PC-3 prostate = system: PC-3 prostate
NCI-H460 lung = system: NCI-H460 lung
DU-145 prostate = system: DU-145 prostate
EKVX NSCLC = system: EKVX NSCLC
SK-MEL-28 melanoma = system: SK-MEL-28 melanoma
KM12 colon = system: KM12 colon
MDA-MB-231 breast = system: MDA-MB-231 breast
UACC-62 melanoma = system: UACC-62 melanoma
UACC-257 melanoma = system: UACC-257 melanoma
SF-268 CNS = system: SF-268 CNS
786-0 renal = system: 786-0 renal
TK-10 renal = system: TK-10 renal
RPMI-8226 leukemia = system: RPMI-8226 leukemia
HCC-2998 colon = system: HCC-2998 colon
SK-MEL-5 melanoma = system: SK-MEL-5 melanoma
COLO 205 colon = system: COLO 205 colon
A549 NSCLC = system: A549 NSCLC
MCF7 breast = system: MCF7 breast
NCI-H226 lung = system: NCI-H226 lung
SN12C renal = system: SN12C renal
OVCAR-8 ovarian = system: OVCAR-8 ovarian
HCT-15 colon = system: HCT-15 colon
OVCAR-5 ovarian = system: OVCAR-5 ovarian
SK-OV-3 ovarian = system: SK-OV-3 ovarian
SNB-19 CNS = system: SNB-19 CNS
CCRF-CEM leukemia = system: CCRF-CEM leukemia
OVCAR-4 ovarian = system: OVCAR-4 ovarian
BT-549 breast = system: BT-549 breast
OVCAR-3 ovarian = system: OVCAR-3 ovarian
CAKI-1 renal = system: CAKI-1 renal
ACHN renal = system: ACHN renal
MOLT-4 leukemia = system: MOLT-4 leukemia
LOX IMVI melanoma = system: LOX IMVI melanoma

With `O=c1[nH]c(Sc2sc3ccc(Cl)cc3c2CBr)nc(=S)[nH]1` the GI50 (HS 578T breast) was greater than 100 µM, the TGI (HS 578T breast) was greater than 100 µM and the GI50 (MALME-3M melanoma) was greater than 100 µM. The TGI (MALME-3M melanoma) was greater than 100 µM, the GI50 (NCI-H23 lung) was greater than 100 µM and the TGI (NCI-H23 lung) was greater than 100 µM. For the same compound, the GI50 (NCI/ADR-RES ovarian) was greater than 100 µM, the TGI (NCI/ADR-RES ovarian) was greater than 100 µM and the GI50 (M14 melanoma) was greater than 100 µM. It also gave a TGI (M14 melanoma) greater than 100 µM, a GI50 (RXF 393 renal) greater than 81.7 µM and a TGI (RXF 393 renal) greater than 100 µM. The GI50 (HOP-62 NSCLC) was greater than 100 µM, the TGI (HOP-62 NSCLC) was greater than 100 µM and the GI50 (SF-295 CNS) was greater than 100 µM. The TGI (SF-295 CNS) was greater than 100 µM, the GI50 (NCI-H522 lung) was greater than 63.8 µM and the TGI (NCI-H522 lung) was greater than 100 µM. For the same compound, the GI50 (SNB-75 CNS) was greater than 100 µM, the TGI (SNB-75 CNS) was greater than 100 µM and the GI50 (MDA-MB-435) was greater than 100 µM. The TGI (MDA-MB-435) was greater than 100 µM, the GI50 (UO-31 renal) was greater than 100 µM and the TGI (UO-31 renal) was greater than 100 µM. It also gave a GI50 (K-562 leukemia) greater than 100 µM, a TGI (K-562 leukemia) greater than 100 µM and a GI50 (A498 renal) greater than 100 µM. The TGI (A498 renal) was greater than 100 µM, the GI50 (U251 CNS) was greater than 100 µM and the TGI (U251 CNS) was greater than 100 µM. For the same compound, the GI50 (SK-MEL-2 melanoma) was greater than 100 µM, the TGI (SK-MEL-2 melanoma) was greater than 100 µM and the GI50 (HCT-116 colon) was greater than 100 µM. It also gave a TGI (HCT-116 colon) greater than 100 µM, a GI50 (HOP-92 NSCLC) greater than 100 µM and a TGI (HOP-92 NSCLC) greater than 100 µM. For the same compound, the GI50 (IGROV1 ovarian) was greater than 100 µM, the TGI (IGROV1 ovarian) was greater than 100 µM and the GI50 (T-47D breast) was greater than 100 µM. The TGI (T-47D breast) was greater than 100 µM, the GI50 (SF-539 CNS) was greater than 100 µM and the TGI (SF-539 CNS) was greater than 100 µM. For the same compound, the GI50 (SR leukemia) was greater than 100 µM, the TGI (SR leukemia) was greater than 100 µM and the GI50 (SW-620 colon) was greater than 100 µM. For the same compound, the TGI (SW-620 colon) was greater than 100 µM, the GI50 (HL-60(TB) leukemia) was greater than 100 µM and the TGI (HL-60(TB) leukemia) was greater than 100 µM. The GI50 (HT29 colon) was greater than 100 µM, the TGI (HT29 colon) was greater than 100 µM and the GI50 (PC-3 prostate) was greater than 100 µM. The TGI (PC-3 prostate) was greater than 100 µM, the GI50 (NCI-H460 lung) was greater than 100 µM and the TGI (NCI-H460 lung) was greater than 100 µM. It also gave a GI50 (DU-145 prostate) greater than 100 µM, a TGI (DU-145 prostate) greater than 100 µM and a GI50 (EKVX NSCLC) greater than 100 µM. It also gave a TGI (EKVX NSCLC) greater than 100 µM, a GI50 (SK-MEL-28 melanoma) greater than 100 µM and a TGI (SK-MEL-28 melanoma) greater than 100 µM. The GI50 (KM12 colon) was greater than 100 µM, the TGI (KM12 colon) was greater than 100 µM and the GI50 (MDA-MB-231 breast) was greater than 100 µM. For the same compound, the TGI (MDA-MB-231 breast) was greater than 100 µM, the GI50 (UACC-62 melanoma) was greater than 100 µM and the TGI (UACC-62 melanoma) was greater than 100 µM. The GI50 (UACC-257 melanoma) was greater than 100 µM, the TGI (UACC-257 melanoma) was greater than 100 µM and the GI50 (SF-268 CNS) was greater than 100 µM. The TGI (SF-268 CNS) was greater than 100 µM, the GI50 (786-0 renal) was greater than 100 µM and the TGI (786-0 renal) was greater than 100 µM. It also gave a GI50 (TK-10 renal) greater than 100 µM, a TGI (TK-10 renal) greater than 100 µM and a GI50 (RPMI-8226 leukemia) greater than 100 µM. The TGI (RPMI-8226 leukemia) was greater than 100 µM, the GI50 (HCC-2998 colon) was greater than 100 µM and the TGI (HCC-2998 colon) was greater than 100 µM. For the same compound, the GI50 (SK-MEL-5 melanoma) was greater than 100 µM, the TGI (SK-MEL-5 melanoma) was greater than 100 µM and the GI50 (COLO 205 colon) was greater than 100 µM. The TGI (COLO 205 colon) was greater than 100 µM, the GI50 (A549 NSCLC) was greater than 100 µM and the TGI (A549 NSCLC) was greater than 100 µM. For the same compound, the GI50 (MCF7 breast) was greater than 100 µM, the TGI (MCF7 breast) was greater than 100 µM and the GI50 (NCI-H226 lung) was greater than 100 µM. The TGI (NCI-H226 lung) was greater than 100 µM, the GI50 (SN12C renal) was greater than 100 µM and the TGI (SN12C renal) was greater than 100 µM. It also gave a GI50 (OVCAR-8 ovarian) greater than 100 µM, a TGI (OVCAR-8 ovarian) greater than 100 µM and a GI50 (HCT-15 colon) greater than 100 µM. It also gave a TGI (HCT-15 colon) greater than 100 µM, a GI50 (OVCAR-5 ovarian) greater than 100 µM and a TGI (OVCAR-5 ovarian) greater than 100 µM. For the same compound, the GI50 (SK-OV-3 ovarian) was greater than 100 µM, the TGI (SK-OV-3 ovarian) was greater than 100 µM and the GI50 (SNB-19 CNS) was greater than 100 µM. It also gave a TGI (SNB-19 CNS) greater than 100 µM, a GI50 (CCRF-CEM leukemia) greater than 100 µM and a TGI (CCRF-CEM leukemia) greater than 100 µM. The GI50 (OVCAR-4 ovarian) was greater than 100 µM, the TGI (OVCAR-4 ovarian) was greater than 100 µM and the GI50 (BT-549 breast) was greater than 100 µM. For the same compound, the TGI (BT-549 breast) was greater than 100 µM, the GI50 (OVCAR-3 ovarian) was greater than 100 µM and the TGI (OVCAR-3 ovarian) was greater than 100 µM. For the same compound, the GI50 (CAKI-1 renal) was greater than 100 µM, the TGI (CAKI-1 renal) was greater than 100 µM and the GI50 (ACHN renal) was greater than 100 µM. The TGI (ACHN renal) was greater than 100 µM, the GI50 (MOLT-4 leukemia) was 99.1 µM and the TGI (MOLT-4 leukemia) was greater than 100 µM. The GI50 (LOX IMVI melanoma) was greater than 100 µM and the TGI (LOX IMVI melanoma) was greater than 100 µM.
